From patent US12129255B2, “Pyrido [2,3-d]pyrimidine derivatives as inhibitors of human immunodeficiency virus replication” (VIIV HEALTHCARE UK (No. 5) LIMITED, priority 2019, dated 2024)

What was measured:
[1] = IV pharmacokinetics in mouse; format: in vivo, male CD1 mice; details: male, CD1, plasma, IV 1 mg/kg
Protocol: (§1) PK was investigated in male CD1 mice, Wistar Han Rats, Cynomolgus monkeys, and Beagle Dogs. Two groups of animals (N=3 per group) received test compound either as an intravenous (IV) dose (1 mg/kg) or by oral gavage (5 mg/kg solution and suspension). Drug was formulated in 90% PEG 400, 10% ethanol for IV administration and in 90% PEG400, 5% ethanol for PO administration. Blood samples were collected at 0.167, 0.25, 0.5, 0.75, 1, 2, 3, 5, 7, 24, 48, 72 and 96 h post dose for IV; 0.25, 0.5, 0.75, 1, 2, 3, 5, 7, 24, 48, 72 and 96 h post dose for oral. Blood samples were collected into K3EDTA tubes and centrifuged at 1500 to 2000×g to obtain plasma. Plasma samples were stored at −20° C. until analysis by LC-MS/MS. All in vivo samples were injected on an Exion LC 4500 Triple Quad™ LC-MS/MS system where the column was maintained at 60° C. and the flow rate was 0.6 mL/min. All LC-MS/MS analysis parameters are captured electronically in the raw data files. Rat IV, Dog IV, Monkey IV, and Monkey PO PK samples were analyzed by General Analysis Method A. Mouse IV, Mouse PO, and Dog PO PK samples were analyzed by General Analysis Method B. Rat PO samples were analyzed by General Analysis Method C.
(§2) The PK parameters were obtained by non-compartmental analysis of plasma concentration vs time data (Phoenix WinNonlin v8.1). The peak concentration (Cmax) and time for Cmax (Tmax) were recorded directly from experimental observations. The area under the curve from time zero to the last sampling time [AUC0-T] and the area under the curve from time zero to infinity [AUCINF] were calculated using the linear-log trapezoidal rule. The total plasma clearance (CLTp), steady-state volume of distribution (VSS), apparent elimination half-life (T-HALF), and mean residence time (MRT) were estimated after IV administration. Estimations of AUC and T-HALF were made using a minimum of three timepoints with quantifiable concentrations. The absolute oral bioavailability (F) was estimated as the ratio of dose-normalized AUC values following oral and IV doses.

[2] = IV pharmacokinetics in monkey; format: in vivo, Cynomolgus monkeys
Protocol: as §1, §2

[3] = Metabolism in liver microsomes (dog); format: in vitro ADME
Protocol: Liver microsomes from human, rat dog and monkey were thawed and diluted to a final concentration of 1 mg/mL in 100 mM potassium phosphate buffer (pH 7.4). Test compounds and controls were prepared at 100× final concentration of 1 μM in 1:1 acetonitrile:water (v/v) and aliquoted into microsomal mixture. The mixture was preincubated at 37° C. in a shaking water bath for 10 minutes. The incubations were performed in duplicate. Three controls were included in the incubations; warfarin, phenacetin, and verapamil. After the preincubation, the reaction was initiated with NADPH at a final concentration of 1 mM. At 0, 5, 15, 30, 45 and 60 minutes, 25 μL of sample was removed and quenched with 300 μL of acetonitrile containing internal standard (Telmisartan). The samples were vortexed for 5 minutes at 1200 rpm and then centrifuged at 4000 rpm for 10 min. A 100 μL aliquot of supernatant was diluted three-fold with water and injected on an Exion LC 4500 Triple Quad LC-MS/MS system. Results were reported as a percentage of parent remaining and was calculated from peak area ratios of test compound remaining after at each time point and compared to time zero incubation.

[4] = Subcutaneous pharmacokinetics in rat; format: in vivo, Wistar Han Rats
Protocol: Drug was formulated in 1% Kolliphor P188/1% PEG3350/3.5% Mannitol/94.5% Water and then administered to Wistar Han Rats as a subcutaneous injection at a dose of 20 mg/kg. Blood samples were collected at 0.167, 0.25, 0.5, 0.75, 1, 2, 3, 5, 7, 24, 48, 72, 96 h, and then every 3 days for up to 122 days. Blood samples were collected into K3EDTA tubes and centrifuged at 1500 to 2000×g to obtain plasma. Plasma samples were stored at −20° C. until analysis by LC-MS/MS.

[5] = IV pharmacokinetics in rat; format: in vivo, Wistar Han Rats; details: Wistar Han, plasma, IV 1 mg/kg
Protocol: as §1, §2

[6] = cynomolgus monkey, plasma, Monkey, IV 1 mg/kg

Molecule `Cn1nc(NS(C)(=O)=O)c2c(Cl)ccc(-n3c([C@H](Cc4cc(F)cc(F)c4)NC(=O)Cn4nc(C(F)F)c5c4C(F)(F)[C@@H]4C[C@H]54)nc4nc(OCCC(F)(F)F)ccc4c3=O)c21` (atropisomer, axis not shown; (P)) [Example 1, N—((S)-1-((3P)-3-(4-chloro-1-methyl-3-(methylsulfonamido)-1H-indazol-7-yl)-4-oxo-7-(3,3,3-trifluoropropoxy)-3,4-dihydropyrido[2,3-d]pyrimidin-2-yl)-2-(3,5-difluorophenyl)ethyl)-2-((3bS,4aR)-3-(difluoromethyl)-5,5-difluoro-3b,4,4a,5-tetrahydro-1H-cyclopropa[3,4]cyclopenta[1,2-c]pyrazol-1-yl)acetamide] has a clearance [1] of 0.5 mL/min/kg, a half-life [1] of 7.6 h and a Vd ([1]; read-out: Vss) of 0.24 L/kg. It also gave a clearance [2, 6] of 8.5 mL/min/kg, a half-life [2, 6] of 3 h and a Vd ([2]; cynomolgus monkey, plasma, Monkey, IV 1 mg/kg, read-out: Vss) of 1.18 L/kg. The “clearance improved relative to Example 60.2” value ([2]; monkey, IV) was 2.6 fold, the “half-life in circulation higher than Example 60.2” value ([2]; monkey, IV) was “two-fold” and the “stability in dog liver microsomes relative to Example 60.2” value ([3]; Example 1 versus Example 60.2) was “six times more stable”. For the same molecule, the half-life at 1 μM ([3]; dog, liver microsomes, pH 7.4, 1 μM compound, 1 mg/mL microsomes, NADPH, read-out: Dog liver microsome T1/2) was 1.75 h, the “% of the AUC extrapolated” value ([4]; SC 20 mg/kg) was 2.89% and the “time drug concentrations were maintained above 7 ng/mL for all animals” value ([4]; SC 20 mg/kg (FIG. 1)) was 73 days. For the same molecule, the bioavailability ([4]; Wistar Han, plasma, SC 20 mg/kg) was 93%, the half-life ([4]; Wistar Han, plasma, SC 20 mg/kg, read-out: apparent half-life of compound in plasma (converted)) was 312 h and the clearance [5] was 2.64 mL/min/kg. The half-life [5] was 17.4 h and the Vd ([5]; read-out: Vss) was 3.34 L/kg.
